Measured values published in patent publication US8318976B2, “Salts, aqueous liquid compositions containing salts of S-(+)-abscisic acid and methods of their preparation” (Valent BioSciences Corporation, priority 2007, dated 2012).
Read-outs that look alike come from different tables or passages of the source.

Legend:
[1] = system: California Blackeye Pea (cowpea); assay: Phytotoxicity and growth after foliar application; type: in vivo; settings: for % Leaf Area Damaged 3 days after treatment: monofoliate leaves
Description: Phytotoxicity is defined as damage to a plant caused by treatment with an externally applied chemical substance. Phytotoxicity caused by application of an agricultural chemical is considered highly undesirable (except in the case of herbicides). To test the relative safety of the compositions of the present invention, comprising an ammonium salt of (S)-(+)-abscisic acid, as compared to compositions of the prior art, comprising an ammonium salt of (R,S)-(±)-abscisic acid, plants were treated with solutions containing two different concentrations of the (S)-(+)-abscisic acid or with solutions containing (R,S)-(±)-abscisic acid at concentrations in which either the total concentration of (R,S)-(±)-abscisic acid was equal to the higher concentration of (S)-(+)-abscisic acid or in which the concentration of (S)-(+)-abscisic acid contained in the (R,S)-(±)-abscisic acid was equal to the higher treatment concentration of the pure (S)-(+)-abscisic acid. California Blackeye Pea (cowpea) seed was planted into 18 cell flats filled with Promix PGX in a greenhouse. When the plants had grown to a point where the monofoliate leaves were fully expanded and the first trifoliate leaves were emerging (18 days after planting) the plants were sprayed with 1.5 ml of treatment solution. After treatment the plants were held in the greenhouse and evaluated for damage to the monofoliate leaves and also for growth of the trifoliate leaves. The percentage of the monofoliate leaf area that was damaged was estimated three days after treatment, and monofoliate leaf abscission and trifoliate leaf development were determined on the fifth day after treatment.

[2] = system: tomato leaf transpiration; assay: Tomato leaf transpiration rate after foliar spray (LI-1600 porometer); type: in vivo, Tomato (variety: Rutgers); settings: for Transpiration rate (% of control), 3-Day Average: average of days 1-3; for Transpiration rate (% of control), Days after treatment 1: day 1; for Transpiration rate (% of control), Days after treatment 2: day 2; for Transpiration rate (% of control), Days after treatment 3: day 3
Description: Preparation of plant specimens for use in the treatment studies of the EXAMPLES that follow was carried out as follows. Tomato (variety: Rutgers) seeds were sown in an 18-cell flat filled with Promix PGX (available from Premier Horticulture Inc., Quakertown Pa.) and grown for 3 weeks to allow for germination and initial growth. Plants were then transplanted into pots (18 cm in diameter and 18 cm in height), filled with Promix BX (available from Premier Horticulture Inc., Quakertown Pa.), and grown for one or two more weeks before treatment, depending on temperature and available light. Plants received daily irrigation and weekly fertilizer (1 g/L all purpose fertilizer 20-20-20, available from The Scotts Company, Marysville, Ohio).
All treatment solutions were made up with distilled water. The (S)-(+)-abscisic acid (95% active ingredient) is available from Lomon BioTechnology Co., Ltd. (Shichuan, China). Twenty L of a 250 ppm solution of (S)-(+)-abscisic acid was prepared and stored in the dark at 20-25° C. This same 250-ppm (S)-(+)-abscisic acid solution was used as a control for all studies to eliminate the possibility of applying an incorrect concentration.
All experiments were conducted using a randomized complete block experimental design. Solutions of (S)-(+)-abscisic acid and blank treatments (plain water) were applied by spray to the aerial parts of the tomato plants at the rate of 20 mL per 6 plants. Plants were then placed in a transparent chamber with humidity controlled within the range of 40 to 60% relative humidity. Leaf transpiration rates were measured at 1, 2 and 3 days after treatment. Measurements were conducted using a LI-1600 Steady State Porometer (LI-Cor, Lincoln, Nebr.). Each day the transpiration rate of the plants of each treatment group was normalized to a percentage of the transpiration rate of untreated plants (plants sprayed with water only) in order to control for day-to-day variability in plant status caused by changes of environmental conditions such as light intensity and temperature. Data of each plant was also averaged over a 3-day period to balance the short term and long term effect of (S)-(+)-abscisic acid on tomato leaf transpiration as well as to reduce experimental variability.

[3] = literature reports; cited from earlier work
[4] = cited from earlier work; for highest concentration achievable in water: pure water, room / ordinary ambient temperature

CC1=CC(=O)CC(C)(C)C1(O)/C=C/C(C)=C\C(=O)O.N (racemic) [(R,S)-(±)-abscisic acid ammonium salt]
Average Number of Abscised Monofoliate Leaves 5 days after treatment ([1]; 6250 ppm foliar spray): 1.7 | Average Number of New Trifoliate Leaves 5 days after treatment ([1]; 6250 ppm foliar spray): 0.0 | % Leaf Area Damaged 3 days after treatment ([1]; 6250 ppm foliar spray): 97% | Average Number of Abscised Monofoliate Leaves 5 days after treatment ([1]; 12500 ppm foliar spray): 2.0 | Average Number of New Trifoliate Leaves 5 days after treatment ([1]; 12500 ppm foliar spray): 0.0 | % Leaf Area Damaged 3 days after treatment ([1]; 12500 ppm foliar spray): 100% | relative phytotoxicity, (S)-(+)- vs (R,S)-(±)-abscisic acid salt ([1]; equal total dose or equal (S)-(+)-enantiomer dose): more phytotoxicity | Transpiration rate (% of control), 3-Day Average ([2]; Table 8, 250 ppm spray): 90.95 % of control | Transpiration rate (% of control), Days after treatment 1 ([2]; Table 8, 250 ppm spray): 90.26 % of control | Transpiration rate (% of control), Days after treatment 2 ([2]; Table 8, 250 ppm spray): 87.73 % of control | Transpiration rate (% of control), Days after treatment 3 ([2]; Table 8, 250 ppm spray): 94.86 % of control | Transpiration rate (% of control), 3-Day Average ([2]; Table 8, 500 ppm spray): 81.03 % of control | Transpiration rate (% of control), Days after treatment 1 ([2]; Table 8, 500 ppm spray): 77.53 % of control | Transpiration rate (% of control), Days after treatment 2 ([2]; Table 8, 500 ppm spray): 76.20 % of control | Transpiration rate (% of control), Days after treatment 3 ([2]; Table 8, 500 ppm spray): 89.36 % of control

CC1=CC(=O)CC(C)(C)[C@]1(O)/C=C/C(C)=C\C(=O)O [(R)-(−)-abscisic acid]
biological activity [3]: biologically inactive

CC(C=C[C@@]1(O)C(C)=CC(=O)CC1(C)C)=CC(=O)O [(S)-(+)-2-trans-,4-trans-isomer]
biological activity [3]: biologically inactive

CC1=CC(=O)CC(C)(C)[C@@]1(O)/C=C/C(C)=C\C(=O)O [(S)-(+)-abscisic acid, 2-cis-, 4-trans-(S)-(+)-abscisic acid]
solubility in hard water ([4]; hard water, compared with pure water): even less | solubility in propylene glycol ([4]; propylene glycol): poorly soluble | highest concentration achievable in water [4]: ≤ 3000 ppm | highest concentration achievable in water ([4]; listed as abscisic acid): about 3000 ppm | Transpiration rate (% of control), 3-Day Average ([2]; Table 1, 250 ppm spray): 87.02 % of control | Transpiration rate (% of control), Days after treatment 1 ([2]; Table 1, 250 ppm spray): 75.59 % of control | Transpiration rate (% of control), Days after treatment 2 ([2]; Table 1, 250 ppm spray): 89.83 % of control | Transpiration rate (% of control), Days after treatment 3 ([2]; Table 1, 250 ppm spray): 95.63 % of control | Transpiration rate (% of control), 3-Day Average ([2]; Table 2, 250 ppm spray): 87.02 % of control | Transpiration rate (% of control), Days after treatment 1 ([2]; Table 2, 250 ppm spray): 75.59 % of control | Transpiration rate (% of control), Days after treatment 2 ([2]; Table 2, 250 ppm spray): 89.83 % of control | Transpiration rate (% of control), Days after treatment 3 ([2]; Table 2, 250 ppm spray): 95.63 % of control | Transpiration rate (% of control), 3-Day Average ([2]; Table 3, 250 ppm spray): 80.78 % of control | Transpiration rate (% of control), Days after treatment 1 ([2]; Table 3, 250 ppm spray): 72.66 % of control | Transpiration rate (% of control), Days after treatment 2 ([2]; Table 3, 250 ppm spray): 76.18 % of control | Transpiration rate (% of control), Days after treatment 3 ([2]; Table 3, 250 ppm spray): 93.50 % of control | Transpiration rate (% of control), 3-Day Average ([2]; Table 4, 250 ppm spray): 83.21 % of control | Transpiration rate (% of control), Days after treatment 1 ([2]; Table 4, 250 ppm spray): 75.30 % of control | Transpiration rate (% of control), Days after treatment 2 ([2]; Table 4, 250 ppm spray): 83.65 % of control | Transpiration rate (% of control), Days after treatment 3 ([2]; Table 4, 250 ppm spray): 90.68 % of control | Transpiration rate (% of control), 3-Day Average ([2]; Table 5, 250 ppm spray): 69.00 % of control | Transpiration rate (% of control), Days after treatment 1 ([2]; Table 5, 250 ppm spray): 59.35 % of control | Transpiration rate (% of control), Days after treatment 2 ([2]; Table 5, 250 ppm spray): 71.02 % of control | Transpiration rate (% of control), Days after treatment 3 ([2]; Table 5, 250 ppm spray): 76.62 % of control | Transpiration rate (% of control), 3-Day Average ([2]; Table 7, 250 ppm spray): 78.21 % of control | Transpiration rate (% of control), Days after treatment 1 ([2]; Table 7, 250 ppm spray): 71.16 % of control | Transpiration rate (% of control), Days after treatment 2 ([2]; Table 7, 250 ppm spray): 75.23 % of control | Transpiration rate (% of control), Days after treatment 3 ([2]; Table 7, 250 ppm spray): 88.25 % of control | Transpiration rate (% of control), 3-Day Average ([2]; Table 8, 250 ppm spray): 78.21 % of control | Transpiration rate (% of control), Days after treatment 1 ([2]; Table 8, 250 ppm spray): 71.16 % of control | Transpiration rate (% of control), Days after treatment 2 ([2]; Table 8, 250 ppm spray): 75.23 % of control | Transpiration rate (% of control), Days after treatment 3 ([2]; Table 8, 250 ppm spray): 88.25 % of control
